ChEMBL document CHEMBL1201862, “PubChem BioAssay data set” (2004)
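In this assay, cells in 96-well plates receive the compound at five concentrations for 48 hours. Endpoints are linearly interpolated between the surrounding concentrations. Here, GI50 denotes the concentration required for 50% inhibition of growth.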 Activity calls are given as the source filed them. Rule as the data show it: active = GI50 up to about 1.1 µM and inactive = higher.

What was measured:
Assay in all cases: NCI-60 cell line screen, 48 h
[1] = tested on: 786-0
[2] = tested on: MDA-MB-231
[3] = tested on: MDA-MB-435
[4] = tested on: MDA-N
[5] = tested on: T47D
[6] = tested on: LXFL 529
[7] = tested on: RXF 631
[8] = tested on: DLD-1
[9] = tested on: DMS-114

SMILES | GI50 [3] | GI50 [5] | GI50 [8] | GI50 [9] | also measured
O=C1C=CC(=O)c2ncccc21 | 5.7 µM (inactive) | 2.19 µM (inactive) | – | – | GI50 [1]: 2.71 µM (inactive); GI50 [2]: 2.47 µM (inactive); GI50 [4]: 4.56 µM (inactive)
c1ccc(Sc2nc(Sc3ccccc3)nc(Sc3ccccc3)n2)cc1 | 52.1 µM (inactive) | 22.3 µM (inactive) | – | – | GI50 [2]: > 100 µM (inactive)
O=C(Nc1cccc2c1[nH]c1c(-c3ccccc3)nccc12)c1ccccc1[N+](=O)[O-] | – | – | – | – | GI50 [6]: 25.5 µM (inactive); GI50 [7]: 17.9 µM (inactive)
O=C(c1ccccc1)c1ccc2c(c1)N=C(c1ccc(Cl)c(Cl)c1)CC(c1ccc3ccccc3c1)N2 (stereo unspecified) | – | – | > 100 µM (inactive) | > 100 µM (inactive) | GI50 [6]: > 100 µM (inactive); GI50 [7]: > 100 µM (inactive)
Nc1nc(=O)n(C2OC(CO)C(O)C2O)cc1F (stereo unspecified) | – | – | > 100 µM (inactive) | 0.0462 µM (active) | –
c1ccc(P(CCP(c2ccccn2)c2ccccn2)c2ccccc2)cc1 | 12.1 µM (inactive) | 0.0435 µM (active) | – | – | GI50 [1]: 11.9 µM (inactive); GI50 [4]: 4.57 µM (inactive)
O=CNc1cccc2c3c([nH]c12)CCCCCC3 | – | – | > 100 µM (inactive) | > 81.5 µM (inactive) | –
O[C@H]1[C@H](O)[C@@H](O)CN2CC[C@H](O)[C@H]12 [CASTANOSPERMINE] | – | – | > 100 µM (inactive) | > 100 µM (inactive) | –
C=CCCC1(C)CCCNC1=S (stereo unspecified) | – | – | > 100 µM (inactive) | > 100 µM (inactive) | –
Cn1c(-c2ccccc2)cc(-c2cccs2)c1-c1cccs1 | – | – | > 100 µM (inactive) | > 52 µM (inactive) | –
COc1ccc(NC(=O)/C(Cc2cc(=O)oc3cc(O)ccc23)=N\NC(C)(C)C)c(OC)c1 | – | – | – | – | GI50 [1]: > 100 µM (inactive); GI50 [6]: > 100 µM (inactive)
S=C1NN=C2C(=C3CCCC4C5CCCCC5N2C34)N1 (stereo unspecified) | – | 24.8 µM (inactive) | – | – | –
CCCCNC(=O)C1C(=O)N(CCCC)C(=O)/C1=N\N (stereo unspecified) | – | – | – | > 100 µM (inactive) | GI50 [1]: > 100 µM (inactive); GI50 [6]: > 100 µM (inactive); GI50 [7]: > 100 µM (inactive)
COc1nc2ccc(Cl)c(C(O)c3ccccc3)c2nc1OC (stereo unspecified) | 12.5 µM (inactive) | 19.8 µM (inactive) | – | – | GI50 [2]: 15.4 µM (inactive); GI50 [4]: 11.5 µM (inactive)
COc1ccc(/C=C2\CCC(C)C3C2=NN(c2ccccc2)C3c2ccc(OC)c(OC)c2)cc1OC (stereo unspecified) | 3.64 µM (inactive) | 1.71 µM (inactive) | – | – | GI50 [1]: 3.48 µM (inactive); GI50 [2]: 4.19 µM (inactive); GI50 [4]: 3.94 µM (inactive)
CCC12CCC[C@@]13C=C[C@H](O3)C(C)(C)C2=O (stereo partly specified) | – | – | > 100 µM (inactive) | > 100 µM (inactive) | GI50 [6]: > 100 µM (inactive); GI50 [7]: > 100 µM (inactive)
CN(C)CCNCc1c2ccccc2c(CNCCN(C)C)c2ccccc12 | – | – | 29.4 µM (inactive) | 26 µM (inactive) | –
COc1ccc(-c2oc3cc(O)cc(O)c3c(=O)c2OC)cc1 [ERMANIN] | 17.8 µM (inactive) | 31 µM (inactive) | – | – | GI50 [2]: 31.8 µM (inactive); GI50 [4]: 25.4 µM (inactive)
CCN1CC2(CO)CCC(OC)C34C5CC6C(OC)CC(O)(C5C6OC)C(O)(C(OC)C23)C14 (stereo unspecified) | – | – | 80.7 µM (inactive) | > 375 µM (inactive) | –
